The assay addresses T1, HIV-1 reverse transcriptase (HIV-1逆转录酶) (Human immunodeficiency virus type 1 group M subtype B, UniProt P03366).
T1 construct: HIV-1逆转录酶HIV-1 RT为基因工程重组酶
Put plainly: HIV-1 RT activity assay (oligo(dT)15-coated 96-well plate, poly(A) template, biotin-11-dUTP / SA-ALP / PNPP, 405 nm). Format: biochemical. The settings on record: relative to nevirapine (NVP); range stated for the six compounds together.

Consider `O=c1[nH]c(=O)n(COCc2ccccc2)c(Cc2ccccc2)c1Br` [化合物6, 1-苄氧甲基-5-溴-6-苄基尿嘧啶], for which the “activity higher than that of nevirapine (NVP)” value (from here on “activity higher than that”) is reported as 3.6-627 fold.
The value for `CCOCn1c(Cc2ccccc2)c(Br)c(=O)[nH]c1=O` [化合物9, 1-乙氧甲基-5-溴-6-苄基尿嘧啶] was 3.6-627 fold; that for `O=c1[nH]c(=O)n(COCc2ccccc2)c(Cc2ccccc2)c1I` [化合物5, 1-苄氧甲基-5-碘-6-苄基尿嘧啶] was 3.6-627 fold.
For the compound `CCOCn1c(Cc2ccccc2)c(N(C)C)c(=O)[nH]c1=O` [化合物10, 1-乙氧甲基-5-N,N-二甲基氨基-6-苄基尿嘧啶], the “activity higher than that” value was 3.6-627 fold.
Take `CN(C)c1c(Cc2ccccc2)n(COCc2ccccc2)c(=O)[nH]c1=O` [化合物7, 1-苄氧甲基-5-N,N-二甲基氨基-6-苄基尿嘧啶]: the “activity higher than that” value is on record as 3.6-627 fold.
Regarding `CCOCn1c(Cc2ccccc2)c(I)c(=O)[nH]c1=O` [化合物8, 1-乙氧甲基-5-碘-6-苄基尿嘧啶], the “activity higher than that” value is recorded as 3.6-627 fold.

Source of the values: patent CN101016265A, “一种新型hiv-1逆转录酶抑制剂的制备及其用途” (Capital Medical University, priority 2007, dated 2007).
